Read-outs that look alike come from different tables or passages of the source.
Legend:
[1] = target: human NAMPT (Homo sapiens, UniProt P43490); assay: Human recombinant enzyme assay (NMN fluorescence biochemical assay, activation of NAMPT)
Procedure, shortened: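 Activation of recombinant human NAMPT (6 nM) with 2.5 mM ATP, 20 μM PRPP and 150 μM nicotinamide in 50 mM HEPES pH 7.2, 1 mM DTT, 1 mM CHAPS, 50 mM NaCl, 100 mM MgCl2; 60 min, ambient temperature. NMN formed was derivatized with acetophenone/KOH/formic acid, fluorescence read at 355/460 nm after 40 min.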

[2] = target: T1, endogenous NAMPT (Homo sapiens, UniProt P43490); assay: Cellular NAD+ modulation assay in neuroblastoma SH-SY5Y cells; type: cell-based
T1 construct: stimulate the endogenous NAMPT in a native cellular environment; endogenous in cells; host or cells: SH-SY5Y neuroblastoma cells
T1 sequence (P43490 whole entry): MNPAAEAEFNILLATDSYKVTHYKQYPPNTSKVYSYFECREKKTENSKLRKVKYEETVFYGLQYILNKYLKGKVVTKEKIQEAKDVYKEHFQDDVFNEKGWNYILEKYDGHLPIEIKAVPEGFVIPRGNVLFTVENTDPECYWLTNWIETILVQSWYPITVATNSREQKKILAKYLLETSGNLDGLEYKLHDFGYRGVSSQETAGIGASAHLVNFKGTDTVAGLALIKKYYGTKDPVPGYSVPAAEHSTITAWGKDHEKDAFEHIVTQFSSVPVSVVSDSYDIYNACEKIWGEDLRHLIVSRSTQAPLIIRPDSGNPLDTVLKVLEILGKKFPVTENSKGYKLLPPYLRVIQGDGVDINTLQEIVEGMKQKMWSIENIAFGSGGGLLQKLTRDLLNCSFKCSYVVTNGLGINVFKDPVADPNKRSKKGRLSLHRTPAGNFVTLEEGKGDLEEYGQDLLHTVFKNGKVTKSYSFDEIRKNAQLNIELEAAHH
Method: The compounds described herein were also assayed for their ability to stimulate the endogenous NAMPT in a native cellular environment in the cellular NAD+ modulation assay, which measures the ability of the compound to modulate cellular NAD levels. Increased levels of NAD are expected by compounds that permeate the cells and activate the catalytic activity of the endogenous NAMPT.
Neuroblastoma SH-SY5Y cells were grown in 1:1 mixture of Eagle's Minimum Essential Medium and F12 Medium, along with 10% fetal bovine serum, in a humidified incubator with an atmosphere of 95% air and 5% CO2 at 37° C. The assays were initiated by plating 20 μL of SH-SY5Y cells in culture medium with 0.1% fetal bovine serum, at a density of 5000 cells per well to a 384-well Corning™ BioCoat™ Poly-D-Lysine Multiwell Plates. The plates were incubated in the 37° C. incubators for a period of 5 hours. Compounds in DMSO were added to the plates in a volume of 120 nL using the Labcyte Echo Liquid Handlers. […] The plates are then incubated for 40 hours. 30 μL of a readout-solution containing 0.2 U/mL Diaphorase enzyme, 40 uM resazurin, 10 uM FMN, 0.8 U/mL Alcohol dehydrogenase, 3% ethanol, 0.4 mg/mL bovine serum albumin, 0.2% Triton X-100 in 100 mM Tris-HCl, 30 mM EDTA, pH 8.4. The plates were read for fluorescence (Excitation/Emission=540 nm/590 nm) using an EnVision plate reader after 60 mins of incubation at ambient temperature.

[3] = Table A, human recombinant NAMPT, NMN formation, 60 min
[4] = Table A, human recombinant NAMPT, NMN formation, 60 min, read-out: EC50 Human
[5] = Table B, SH-SY5Y cells, cellular NAD levels, doxorubicin, 40 hours
[6] = Table B, SH-SY5Y cells, cellular NAD levels, doxorubicin, 40 hours, read-out: EC50

Chain of human NAMPT (P43490 whole entry): as above

Row | SMILES | AC1.4 Human [1, 3] [µM] | EC50 [1, 4] [µM] | AC0.3 [2, 5] [µM] | EC50 [2, 6] [µM] | EC50 [1] [µM] | EC50 [2] [µM]
1 | NC(=O)c1ccc(CNC(=O)NC2CC3(C2)CC(NC(=O)c2ccccc2)C3)cc1 (stereo not drawn) [Compound 14, N-(6-(3-(4-carbamoylbenzyl)ureido)spiro[3.3]heptan-2-yl)benzamide] | 2.7 | 35.3 | >20.1 | ≥ 20.1 | – | –
2 | O=C(NCCCCC1CCN(C(=O)c2ccccc2)CC1)NCc1ccc(Cl)cc1 [Compound 16, 1-(4-(1-benzoylpiperidin-4-yl)butyl)-3-(4-chlorobenzyl)urea] | 0.1 | – | 0.1 | – | 0.3 | 0.1
3 | NC(=O)c1ccc(CNC(=O)NCCCCC2CCN(C(=O)c3ccccc3)CC2)cc1 [Compound 19, 4-((3-(4-(1-benzoylpiperidin-4-yl)butyl)ureido)methyl)benzamide] | 0.1 | 1.8 | 1.6 | 1.3 | – | –
4 | COc1ccc(CNC(=O)NCCCCC2CCN(C(=O)c3ccccc3)CC2)cc1 [Compound 20, 1-(4-(1-benzoylpiperidin-4-yl)butyl)-3-(4-methoxybenzyl)urea] | 0.2 | 4.7 | 0.4 | 13.9 | – | –
5 | O=C(NCCCCC1CCN(C(=O)c2ccccc2)CC1)NCc1ccc(CO)cc1 [Compound 22, 1-(4-(1-benzoylpiperidin-4-yl)butyl)-3-(4-(hydroxymethyl)benzyl)urea] | 0.1 | 1.1 | 0.4 | 0.1 | – | –
6 | O=C(NCCCCC1CCN(C(=O)c2ccccc2)CC1)NCc1cnco1 [Compound 23, 1-(4-(1-benzoylpiperidin-4-yl)butyl)-3-(oxazol-5-ylmethyl)urea] | 0.1 | 1.4 | 0.3 | 0.3 | – | –
7 | CC(C)(C)OC(=O)N1CCC2(CC1)CC2CNC(=O)NCc1ccc(Cl)cc1 (stereo not drawn) [Compound 27, tert-butyl 1-((3-(4-chlorobenzyl)ureido)methyl)-6-azaspiro[2.5]octane-6-carboxylate] | – | – | – | – | 21.5 | 5.8
8 | CC(C)(C)OC(=O)N1CCC2(CC1)CC2CNC(=O)NCc1ccc(CO)cc1 (stereo not drawn) [Compound 29, tert-butyl 1-((3-(4-(hydroxymethyl)benzyl)ureido)methyl)-6-azaspiro[2.5]octane-6-carboxylate] | – | 26.7 | – | 2.2 | – | –
9 | CC(C)(C)OC(=O)N1CCC2(CC1)CC2CNC(=O)NCc1ccc(C(N)=O)cc1 (stereo not drawn) [Compound 33, tert-butyl 1-((3-(4-carbamoylbenzyl)ureido)methyl)-6-azaspiro[2.5]octane-6-carboxylate] | – | 19.8 | – | 8.4 | – | –
10 | COc1ccc(CNC(=O)NC2CC3(C2)CC(C(=O)N2CCCc4ccccc42)C3)cc1 (stereo not drawn) [Compound 71, 1-(4-methoxybenzyl)-3-(6-(1,2,3,4-tetrahydroquinoline-1-carbonyl)spiro[3.3]heptan-2-yl)urea] | 0.1 | 1.5 | 0.3 | 0.9 | – | –
11 | COc1ccc(CNC(=O)NC2CC3(C2)CC(C(=O)N2Cc4ccccc4C2)C3)cc1 (stereo not drawn) [Compound 73, 1-(6-(isoindoline-2-carbonyl)spiro[3.3]heptan-2-yl)-3-(4-methoxybenzyl)urea] | 1.2 | 7.7 | 0.8 | 0.8 | – | –
12 | COc1ccc(CNC(=O)NC2CC3(C2)CC(C(=O)N2CCc4ccccc42)C3)cc1 (stereo not drawn) [Compound 74, 1-(6-(indoline-1-carbonyl)spiro[3.3]heptan-2-yl)-3-(4-methoxybenzyl)urea] | 0.8 | 13.3 | 0.3 | 0.5 | – | –
13 | COc1ccc(CNC(=O)NC2CC3(C2)CC(C(=O)N2CCN(CC(C)(C)O)CC2)C3)cc1 (stereo not drawn) [Compound 76, 1-(6-(4-(2-hydroxy-2-methylpropyl)piperazine-1-carbonyl)spiro[3.3]heptan-2-yl)-3-(4-methoxybenzyl)urea] | 0.7 | 17.8 | 5.9 | 4.7 | – | –
14 | COc1ccc(CNC(=O)NC2CC3(C2)CC(C(=O)N2CCCc4cc(C)ccc42)C3)cc1 (stereo not drawn) [Compound 84, 1-(4-methoxybenzyl)-3-(6-(6-methyl-1,2,3,4-tetrahydroquinoline-1-carbonyl)spiro[3.3]heptan-2-yl)urea] | 0.1 | 2.8 | 5.3 | 12.7 | – | –
15 | COc1ccc(CNC(=O)NC2CC3(C2)CC(C(=O)N2CCOc4ccccc42)C3)cc1 (stereo not drawn) [Compound 85, 1-(6-(3,4-dihydro-2H-benzo[b][1,4]oxazine-4-carbonyl)spiro[3.3]heptan-2-yl)-3-(4-methoxybenzyl)urea] | 0.1 | 1.6 | 0.9 | 0.8 | – | –
16 | COc1ccc(CNC(=O)NC2CC3(C2)CC(C(=O)N(C)c2ccccc2)C3)cc1 (stereo not drawn) [Compound 87, 6-(3-(4-methoxybenzyl)ureido)-N-methyl-N-phenylspiro[3.3]heptane-2-carboxamide] | 0.6 | 27.4 | 3.4 | 2.4 | – | –
17 | COc1ccc(CNC(=O)NC2CC3(C2)CC(C(=O)N2CCCc4cnccc42)C3)cc1 (stereo not drawn) [Compound 90, 1-(4-methoxybenzyl)-3-(6-(1,2,3,4-tetrahydro-1,6-naphthyridine-1-carbonyl)spiro[3.3]heptan-2-yl)urea] | 0.3 | 5.1 | 0.9 | 0.8 | – | –
18 | CC(C)(O)CN1CCN(C(=O)C2CC3(CC(NC(=O)NCc4ccc(Cl)cc4)C3)C2)CC1 (stereo not drawn) [Compound 110] | 0.7 | – | 0.5 | – | 3.9 | 0.3
19 | O=C(NCc1ccc(Cl)cc1)NC1CC2(C1)CC(NS(=O)(=O)Cc1ccccc1Cl)C2 (stereo not drawn) [Compound 120, N-(6-(3-(4-chlorobenzyl)ureido)spiro[3.3]heptan-2-yl)-1-(2-chlorophenyl)methanesulfonamide] | 0.5 | 2.6 | 0.2 | 0.3 | – | –
20 | O=C(NCc1ccc(Cl)cc1)NC1CC2(C1)CC(NS(=O)(=O)c1ccccc1)C2 (stereo not drawn) [Compound 121] | 1.5 | – | 0.6 | – | 5.7 | 1.2
21 | COc1ccc(CNC(=O)NC2CC3(CC(Cn4ncc5ccccc54)C3)C2)cc1 (stereo not drawn) [Compound 134] | 0.6 | 7.2 | 8.0 | 12.7 | – | –
22 | COc1ccc(CNC(=O)NC2CC3(C2)CN(C(=O)c2ccc(C)nc2)C3)cc1 [Compound 138, 1-(4-methoxybenzyl)-3-(2-(6-methylnicotinoyl)-2-azaspiro[3.3]heptan-6-yl)urea] | 5.7 | 43.2 | 9.1 | 10.1 | – | –
23 | COc1ccc(CNC(=O)NC2CC3(C2)CN(C(=O)c2ccnc(C)c2)C3)cc1 [Compound 140, 1-(4-methoxybenzyl)-3-(2-(2-methylisonicotinoyl)-2-azaspiro[3.3]heptan-6-yl)urea] | 7.5 | 52.5 | 8.2 | 6.3 | – | –
24 | COc1ccc(CNC(=O)NC2CC3(C2)CN(C(=O)c2ccc(C)cc2)C3)cc1 [Compound 145, 1-(4-methoxybenzyl)-3-(2-(4-methylbenzoyl)-2-azaspiro[3.3]heptan-6-yl)urea] | 1.4 | 45.3 | 1.1 | 3.1 | – | –
25 | COc1ccc(CNC(=O)NCCCCCOc2ccccc2)cc1 [Compound 149, 1-(4-methoxybenzyl)-3-(5-phenoxypentyl)urea] | 0.3 | 4.9 | 0.6 | 1.1 | – | –
26 | Cc1cccc(C(=O)N2CC[C@]3(C2)C[C@@H](NC(=O)NCc2ccc(Cl)cc2)C3)c1 [Compound 161, 1-(4-chlorobenzyl)-3-((2r,4s)-6-(3-methylbenzoyl)-6-azaspiro[3.4]octan-2-yl)urea] | 7.5 | 15.7 | 0.3 | 0.8 | – | –
27 | Cc1ccccc1C(=O)N1CC[C@]2(C1)C[C@@H](NC(=O)NCc1ccc(Cl)cc1)C2 [Compound 162, 1-(4-chlorobenzyl)-3-((2r,4s)-6-(2-methylbenzoyl)-6-azaspiro[3.4]octan-2-yl)urea] | 6.2 | 21.7 | 0.7 | 1 | – | –
